What all share (test): NCI anticancer screen, dose series, 48 h
Test [1] relates to 786-0.
The subject of test [2] is A498.
For test [3], the system named is ACHN.
In test [4] the test system is CAKI-1.
Test [5] concerns CCRF-CEM.
Test [6] deals with COLO 205.
Test [7] relates to HOP-62.
Test [8] deals with HT-29.
Test [9] has as its system IGROV-1.
For test [10], the system named is Malme-3M.
Test [11] deals with NCI-H460.
The subject of test [12] is NCI-H522.
The subject of test [13] is OVCAR-5.
Test [14] concerns SF-268.
Test [15] deals with SF-295.
For test [16], the system named is SF-539.
Test [17] has as its system SK-MEL-2.
In test [18] the test system is SK-OV-3.
For test [19], the system named is TK-10.
Test [20] deals with UO-31.

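A five-concentration, 48-hour dose response in 96-well plates underlies each endpoint, interpolated linearly between surrounding concentrations. GI50 marks 50% less growth.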 The source made the active and inactive calls. Cut-off read from the data, not from the text of the source: active = GI50 up to about 1.1 µM and inactive = higher.

In the case of `Cn1ccnc1Sc1ccc(/C=N/NC(=O)c2ccccc2[N+](=O)[O-])cc1[N+](=O)[O-]`, the GI50 in [1] is 68.9 µM (inactive); in [2] it was 58.9 µM (inactive); in test [3], 70.1 µM (inactive); in test [4], 49.8 µM (inactive); in test [5], 42.7 µM (inactive); in test [6] it was 56.2 µM (inactive). Moreover, the GI50 in [7] is > 100 µM (inactive); in [8], 35.6 µM (inactive); in [9], 37.4 µM (inactive); in test [10], 54.6 µM (inactive); in test [11] it was 46.5 µM (inactive); in [12] it was 38.5 µM (inactive). Moreover, the GI50 is > 100 µM (inactive) in test [13]; > 100 µM (inactive) in test [14]; 83.8 µM (inactive) in test [15]; > 100 µM (inactive) in test [16]; 29 µM (inactive) in [17]; > 100 µM (inactive) in test [18]. In addition, the GI50 in [19] was 65.3 µM (inactive); in [20], 89.1 µM (inactive).

For the molecule `CCN(CCCl)c1cc(CN(C)C)cc(NC(=O)c2ccc(C(=O)Nc3cccc(N(CCCl)NN)c3)cc2)c1`, the GI50 is < 0.01 µM (active) in test [1]; 0.197 µM (active) in [2]; < 0.01 µM (active) in [3]; 0.0168 µM (active) in test [4]; < 0.01 µM (active) in [5]; 0.0635 µM (active) in test [6]. For the same molecule, the GI50 was 0.0453 µM (active) in test [7]; 0.0154 µM (active) in test [8]; 0.0225 µM (active) in [9]; 0.0224 µM (active) in test [10]; < 0.01 µM (active) in test [11]; < 0.01 µM (active) in [12]. For the same molecule, the GI50 is 0.182 µM (active) in [13]; 0.0129 µM (active) in test [14]; 0.0428 µM (active) in test [15]; 0.16 µM (active) in test [16]; 0.0521 µM (active) in [17]; 0.116 µM (active) in [18]. Besides, the GI50 in test [19] is 0.296 µM (active); in test [20], 0.462 µM (active).

Take `CCOC(C)C(/C=N/NC(N)=S)=NNC(N)=S` (stereo not drawn) [GLOXAZONE]: the GI50 in test [1] was > 100 µM (inactive); in test [2] it was 21.9 µM (inactive); in [3], > 100 µM (inactive); in test [4] it was > 100 µM (inactive); in test [5], < 0.0208 µM (active); in test [6], > 100 µM (inactive). In addition, the GI50 in test [7] is > 100 µM (inactive); in test [10] it was 92.3 µM (inactive); in [11], > 100 µM (inactive); in [12], 26.2 µM (inactive); in test [13] it was > 100 µM (inactive); in [14] it was > 100 µM (inactive). In addition, the GI50 in test [15] was 1.64 µM (inactive); in test [16], > 100 µM (inactive); in test [17], 29.1 µM (inactive); in [18] it was > 100 µM (inactive); in test [19], > 100 µM (inactive).

In the case of `O=C(c1cccs1)N(C(=O)N1CCN(c2ccccc2)CC1)S(=O)(=O)c1ccccc1`, the GI50 is 23.2 µM (inactive) in test [1]; 62.2 µM (inactive) in [2]; 19.3 µM (inactive) in [3]; 21.2 µM (inactive) in [4]; 20.8 µM (inactive) in test [5]; 16.4 µM (inactive) in [6]. Further, the GI50 in test [7] is 29.6 µM (inactive); in [8], 30.5 µM (inactive); in test [10], 19.8 µM (inactive); in [11], 28.2 µM (inactive); in test [12], 15.6 µM (inactive); in [13], 22.7 µM (inactive). Moreover, the GI50 in test [14] was 27.3 µM (inactive); in test [15], 28.1 µM (inactive); in [16], 17.9 µM (inactive); in [17], 18.7 µM (inactive); in test [18] it was 46.6 µM (inactive); in [19], 31.8 µM (inactive). For the same molecule, the GI50 in test [20] was 18.5 µM (inactive).

`COc1cc(/C=C2\C(=O)N(c3cccc(NC(C)=O)c3)C(c3ccccc3)S2(=O)=O)cc(OC)c1OC` (stereo not drawn): the GI50 in test [1] is 88.5 µM (inactive); in [2], > 100 µM (inactive); in test [3] it was > 100 µM (inactive); in [4], > 100 µM (inactive); in test [5], 30.3 µM (inactive); in test [6], 63.1 µM (inactive). The GI50 in test [7] is > 100 µM (inactive); in test [8], 55.2 µM (inactive); in [9], > 100 µM (inactive); in test [10], 93.5 µM (inactive); in [11], 67.5 µM (inactive); in [12], 28.4 µM (inactive). The GI50 in test [13] was > 100 µM (inactive); in test [15], 50.9 µM (inactive); in test [16], 48.3 µM (inactive); in test [17], > 100 µM (inactive); in test [18] it was > 100 µM (inactive); in test [19], > 100 µM (inactive). Also, the GI50 in test [20] was 50.5 µM (inactive).

For the molecule `Cc1cccc2c1C(=O)[C@](C)([C@]1(C)Nc3cccc(C)c3C1=O)N2`, the GI50 in test [1] was 39.4 µM (inactive); in test [2], 60.5 µM (inactive); in test [3] it was 43.9 µM (inactive); in test [4] it was 27.4 µM (inactive); in [5], 17.6 µM (inactive); in test [6] it was 19.7 µM (inactive). Further, the GI50 in test [7] was 23.3 µM (inactive); in test [8], 29.1 µM (inactive); in test [9], 33.5 µM (inactive); in [10], 36.3 µM (inactive); in test [11], 31 µM (inactive); in test [12] it was 28.6 µM (inactive). For the same molecule, the GI50 was 24.3 µM (inactive) in test [13]; 16.1 µM (inactive) in test [14]; 20.8 µM (inactive) in test [15]; 29 µM (inactive) in test [16]; 24 µM (inactive) in test [17]; 21.7 µM (inactive) in test [18]. The GI50 in test [20] was 18.1 µM (inactive).

`COc1ccc(COCC[C@H](C)OC2OC(CO[Si](C)(C)C(C)(C)C)C(OC(=O)CCCN=[N+]=[N-])C(OC(=O)CCCN=[N+]=[N-])C2OC(=O)CCCN=[N+]=[N-])cc1` (stereo partly drawn): the GI50 in test [1] was 43.7 µM (inactive); in test [2] it was > 100 µM (inactive); in test [4], 36.9 µM (inactive); in [5], 17.5 µM (inactive); in test [6] it was 25.6 µM (inactive); in test [7] it was 97.5 µM (inactive). Besides, the GI50 in [8] was 22.3 µM (inactive); in test [9], 51.5 µM (inactive); in test [10], > 100 µM (inactive); in test [11] it was 55.5 µM (inactive); in [12], 18.7 µM (inactive); in [13], 89.1 µM (inactive). The GI50 is 35.3 µM (inactive) in [14]; 89.3 µM (inactive) in test [15]; 27.5 µM (inactive) in test [16]; > 100 µM (inactive) in test [17]; > 100 µM (inactive) in test [18]; > 100 µM (inactive) in [19]. Besides, in [20], the GI50 was 19.9 µM (inactive).

Values taken from ChEMBL document CHEMBL1201862, “PubChem BioAssay data set” (2004).
